Reference: patent publication US5612329A (priority 1995, dated 1997)

Assays:
[1] = tested on: prostatic carcinoma cells; conditions: cited from earlier work
polyamine transporter = conditions: vs longer polyamines such as spermine and spermidine; cited from earlier work
CCRF-CEN cells = test: In vitro cytotoxicity / cell growth inhibition, leukemia; assay type: cell-based; conditions: Homo sapiens, 48 hr, read-out: log10 G150 (converted)
Method: (§1) The anti-proliferative activities of the aziridinylpolyamines obtained in Synthesis Examples 1-4 were assessed by determining log10 G150 values against human cancer cell lines using the screening strategy described by Boyd et al, Drug Devel. Res. 34:91-109 (1995).
(§2) More specifically, the compounds were tested at a minimum of five concentrations at 10-fold dilutions using a 48 hr continuous exposure protocol. Each cell line shown in Table 1 below was inoculated onto microtiter plates. After a pre-incubation period of 24-48 hr at 37° C., the test compounds were added, and the culture was incubated for an additional 48 hr at 37° C. Cell viability or cell growth end-point determinations were performed by fixation of the cells, followed by staining with sulforhodamine B (Monks et al, J. Natl. Cancer Inst., 83:757-766 (1991)).

K-562 cells = test: as above; assay type: cell-based; conditions: Homo sapiens, K562; K-562, leukemia, 48 hr; read-out: log10 G150 (converted)
Method: as §1, §2

MOLT-4 cells = test: as above; assay type: cell-based; conditions: Homo sapiens; MOLT-4, leukemia, 48 hr; read-out: log10 G150 (converted)
Method: as §1, §2

RPMI-8226 cells = test: as above; assay type: cell-based; conditions: Homo sapiens; RPMI-8226, leukemia, 48 hr; read-out: log10 G150 (converted)
Method: as §1, §2

SR cells = test: as above; assay type: cell-based; conditions: Homo sapiens, 48 hr, read-out: log10 G150 (converted)
Method: as §1, §2

HL-60 (TB) cells = test: cells; assay type: cell-based; conditions: Homo sapiens, leukemia, 48 hr, read-out: log10 G150 (converted)
A549/ATCC cells = test: In vitro cytotoxicity / cell growth inhibition, non-small cell lung cancer; assay type: cell-based; conditions: Homo sapiens, 48 hr, read-out: log10 G150 (converted)
Method: as §1, §2

EKVX cells = test: as above; assay type: cell-based; conditions: Homo sapiens, 48 hr, read-out: log10 G150 (converted)
Method: as §1, §2

HOP-62 cells = test: as above; assay type: cell-based; conditions: Homo sapiens; HOP-62, non-small cell lung cancer, 48 hr; read-out: log10 G150 (converted)
Method: as §1, §2

HOP-92 cells = test: as above; assay type: cell-based; conditions: Homo sapiens; HOP-92, non-small cell lung cancer, 48 hr; read-out: log10 G150 (converted)
Method: as §1, §2

NCl-H226 cells = test: as above; assay type: cell-based; conditions: Homo sapiens, 48 hr, read-out: log10 G150 (converted)
Method: as §1, §2

NCl-H23 cells = test: as above; assay type: cell-based; conditions: Homo sapiens, 48 hr, read-out: log10 G150 (converted)
Method: as §1, §2

NCl-H322M cells = test: as above; assay type: cell-based; conditions: Homo sapiens, 48 hr, read-out: log10 G150 (converted)
Method: as §1, §2

NCl-H460 cells = test: as above; assay type: cell-based; conditions: Homo sapiens, 48 hr, read-out: log10 G150 (converted)
Method: as §1, §2

NCl-H522 cells = test: as above; assay type: cell-based; conditions: Homo sapiens, 48 hr, read-out: log10 G150 (converted)
Method: as §1, §2

COLO 205 cells = test: In vitro cytotoxicity / cell growth inhibition, colon cancer; assay type: cell-based; conditions: Homo sapiens; COLO 205, colon cancer, 48 hr; read-out: log10 G150 (converted)
Method: as §1, §2

HCC-2998 cells = test: as above; assay type: cell-based; conditions: Homo sapiens; HCC-2998, colon cancer, 48 hr; read-out: log10 G150 (converted)
Method: as §1, §2

HCT-116 cells = test: as above; assay type: cell-based; conditions: Homo sapiens; HCT-116, colon cancer, 48 hr; read-out: log10 G150 (converted)
Method: as §1, §2

HCT-15 cells = test: as above; assay type: cell-based; conditions: Homo sapiens; HCT-15, colon cancer, 48 hr; read-out: log10 G150 (converted)
Method: as §1, §2

HT29 cells = test: as above; assay type: cell-based; conditions: Homo sapiens, HT-29, 48 hr, read-out: log10 G150 (converted)
Method: as §1, §2

KM12 cells = test: as above; assay type: cell-based; conditions: Homo sapiens, 48 hr, read-out: log10 G150 (converted)
Method: as §1, §2

SW-620 cells = test: as above; assay type: cell-based; conditions: Homo sapiens; SW-620, colon cancer, 48 hr; read-out: log10 G150 (converted)
Method: as §1, §2

SF-268 cells = test: In vitro cytotoxicity / cell growth inhibition, CNS cancer; assay type: cell-based; conditions: Homo sapiens; SF-268, CNS cancer, 48 hr; read-out: log10 G150 (converted)
Method: as §1, §2

SF-295 cells = test: as above; assay type: cell-based; conditions: Homo sapiens; SF-295, CNS cancer, 48 hr; read-out: log10 G150 (converted)
Method: as §1, §2

SF-539 cells = test: as above; assay type: cell-based; conditions: Homo sapiens; SF-539, CNS cancer, 48 hr; read-out: log10 G150 (converted)
Method: as §1, §2

SNB-19 cells = test: as above; assay type: cell-based; conditions: Homo sapiens; SNB-19, CNS cancer, 48 hr; read-out: log10 G150 (converted)
Method: as §1, §2

SNB-75 cells = test: as above; assay type: cell-based; conditions: Homo sapiens; SNB-75, CNS cancer, 48 hr; read-out: log10 G150 (converted)
Method: as §1, §2

U251 cells = test: as above; assay type: cell-based; conditions: Homo sapiens, U-251, 48 hr, read-out: log10 G150 (converted)
Method: as §1, §2

786-0 cells = test: In vitro cytotoxicity / cell growth inhibition, renal cancer; assay type: cell-based; conditions: Homo sapiens; 786-0, renal cancer, 48 hr; read-out: log10 G150 (converted)
Method: as §1, §2

A498 cells = test: as above; assay type: cell-based; conditions: Homo sapiens, 48 hr, read-out: log10 G150 (converted)
Method: as §1, §2

ACHN cells = test: as above; assay type: cell-based; conditions: Homo sapiens, 48 hr, read-out: log10 G150 (converted)
Method: as §1, §2

CAKI-1 cells = test: as above; assay type: cell-based; conditions: Homo sapiens; CAKI-1, renal cancer, 48 hr; read-out: log10 G150 (converted)
Method: as §1, §2

RXF-393 cells = test: as above; assay type: cell-based; conditions: Homo sapiens; RXF-393, renal cancer, 48 hr; read-out: log10 G150 (converted)
Method: as §1, §2

SN12C cells = test: as above; assay type: cell-based; conditions: Homo sapiens, 48 hr, read-out: log10 G150 (converted)
Method: as §1, §2

TK-10 cells = test: as above; assay type: cell-based; conditions: Homo sapiens; TK-10, renal cancer, 48 hr; read-out: log10 G150 (converted)
Method: as §1, §2

UO-31 cells = test: as above; assay type: cell-based; conditions: Homo sapiens; UO-31, renal cancer, 48 hr; read-out: log10 G150 (converted)
Method: as §1, §2

DNA = conditions: compared with chlorambucil per se; cited from earlier work
[2] = relative to level predicted from in vitro studies; cited from earlier work
cells = conditions: suggested by the biological activity profile; cited from earlier work
cancer cell lines = conditions: cited from earlier work

## NCCCCN1CC1 [N-(4-aminobutyl)aziridine]
[1]
  cytotoxicity against prostatic carcinoma cells: cytotoxic against prostatic carcinoma cells
Polyamine transporter
  effectiveness as substrate for the polyamine transporter: less effective as a substrate for the polyamine transporter than the longer polyamines

## CC(CCNCCCCNCCC(C)N1CC1)N1CC1 (stereo not shown) [Synthesis Example 3, 2,13-Diaziridinyl-5,10-diazatetradecane]
CCRF-CEN cells
  GI50: 4.79 µM
K-562 cells
  GI50: 21.4 µM
MOLT-4 cells
  GI50: 3.24 µM
RPMI-8226 cells
  GI50: 27.5 µM
SR cells
  GI50: 3.63 µM
HL-60 (TB) cells
  GI50: 3.31 µM
A549/ATCC cells
  GI50: 29.5 µM
EKVX cells
  GI50: 30.9 µM
HOP-62 cells
  GI50: 30.9 µM
HOP-92 cells
  GI50: 19.1 µM
NCl-H226 cells
  GI50: 23.4 µM
NCl-H23 cells
  GI50: 13.2 µM
NCl-H322M cells
  GI50: 63.1 µM
NCl-H460 cells
  GI50: 6.17 µM
NCl-H522 cells
  GI50: 12.6 µM
COLO 205 cells
  GI50: 14.8 µM
HCC-2998 cells
  GI50: 55 µM
HCT-116 cells
  GI50: 26.3 µM
HCT-15 cells
  GI50: 41.7 µM
HT29 cells
  GI50: 20 µM
KM12 cells
  GI50: 81.3 µM
SW-620 cells
  GI50: 22.4 µM
SF-268 cells
  GI50: 14.5 µM
SF-295 cells
  GI50: 24 µM
SF-539 cells
  GI50: 6.31 µM
SNB-19 cells
  GI50: 26.3 µM
SNB-75 cells
  GI50: 3.39 µM
U251 cells
  GI50: 15.8 µM
786-0 cells
  GI50: 3.8 µM
A498 cells
  GI50: 69.2 µM
ACHN cells
  GI50: 5.75 µM
CAKI-1 cells
  GI50: 5.01 µM
RXF-393 cells
  GI50: 15.1 µM
SN12C cells
  GI50: 9.55 µM
TK-10 cells
  GI50: > 100 µM
UO-31 cells
  GI50: 35.5 µM

## CC1CN1CCCNCCCCNCCCN1CC1C (stereo not shown) [Synthesis Example 4, 1,12-Di-(2-methyl-1-aziridinyl)-4,9-diazadodecane]
CCRF-CEN cells
  GI50: 3.98 µM
K-562 cells
  GI50: 29.5 µM
MOLT-4 cells
  GI50: 2.95 µM
RPMI-8226 cells
  GI50: 31.6 µM
SR cells
  GI50: 4.9 µM
HL-60 (TB) cells
  GI50: 2.95 µM
A549/ATCC cells
  GI50: 18.2 µM
EKVX cells
  GI50: 32.4 µM
HOP-62 cells
  GI50: 10.7 µM
HOP-92 cells
  GI50: 14.5 µM
NCl-H226 cells
  GI50: 19.1 µM
NCl-H23 cells
  GI50: 8.71 µM
NCl-H322M cells
  GI50: 91.2 µM
NCl-H460 cells
  GI50: 9.12 µM
NCl-H522 cells
  GI50: 7.24 µM
COLO 205 cells
  GI50: 10 µM
HCC-2998 cells
  GI50: 19.1 µM
HCT-116 cells
  GI50: 20.9 µM
HCT-15 cells
  GI50: > 100 µM
HT29 cells
  GI50: 20.4 µM
KM12 cells
  GI50: 64.6 µM
SW-620 cells
  GI50: 41.7 µM
SF-268 cells
  GI50: 20.4 µM
SF-295 cells
  GI50: 47.9 µM
SF-539 cells
  GI50: 12.9 µM
SNB-19 cells
  GI50: 25.7 µM
SNB-75 cells
  GI50: 2.34 µM
U251 cells
  GI50: 13.2 µM
786-0 cells
  GI50: 4.47 µM
A498 cells
  GI50: > 100 µM
ACHN cells
  GI50: 19.1 µM
CAKI-1 cells
  GI50: 3.47 µM
RXF-393 cells
  GI50: 11 µM
SN12C cells
  GI50: 9.77 µM
TK-10 cells
  GI50: 11.7 µM
UO-31 cells
  GI50: 17.4 µM

## NCCCCN(CCCN)CCCNC(=O)CCCc1ccc(N(CCCl)CCCl)cc1 [chlorambucil-spermidine conjugate]
DNA
  production of DNA cross-links: highly efficient at producing DNA cross-links compared with chlorambucil per se
[2]
  in vivo potency: in vivo potency does not reach the level predicted from in vitro studies
cells
  uptake by cells: not taken up well by cells

## C(CNCCCN1CC1)CNCCCN1CC1 [Synthesis Example 2, 1,11-Diaziridinyl-4,8-diazaundecane]
CCRF-CEN cells
  GI50: 3.72 µM
K-562 cells
  GI50: 19.5 µM
MOLT-4 cells
  GI50: 3.09 µM
RPMI-8226 cells
  GI50: 22.4 µM
SR cells
  GI50: 3.09 µM
HL-60 (TB) cells
  GI50: 2.69 µM
A549/ATCC cells
  GI50: 13.2 µM
EKVX cells
  GI50: 25.1 µM
HOP-62 cells
  GI50: 6.31 µM
HOP-92 cells
  GI50: 11.2 µM
NCl-H226 cells
  GI50: 18.6 µM
NCl-H23 cells
  GI50: 10.7 µM
NCl-H322M cells
  GI50: 36.3 µM
NCl-H460 cells
  GI50: 2.95 µM
NCl-H522 cells
  GI50: 11.2 µM
COLO 205 cells
  GI50: 13.2 µM
HCC-2998 cells
  GI50: 20.4 µM
HCT-116 cells
  GI50: 19.5 µM
HCT-15 cells
  GI50: 21.9 µM
HT29 cells
  GI50: 18.6 µM
KM12 cells
  GI50: 19.5 µM
SW-620 cells
  GI50: 26.3 µM
SF-268 cells
  GI50: 10.7 µM
SF-295 cells
  GI50: 14.5 µM
SF-539 cells
  GI50: 11.2 µM
SNB-19 cells
  GI50: 18.2 µM
SNB-75 cells
  GI50: 3.98 µM
U251 cells
  GI50: 6.92 µM
786-0 cells
  GI50: 3.39 µM
A498 cells
  GI50: 28.2 µM
ACHN cells
  GI50: 3.89 µM
CAKI-1 cells
  GI50: 4.07 µM
RXF-393 cells
  GI50: 3.89 µM
SN12C cells
  GI50: 6.76 µM
TK-10 cells
  GI50: 14.5 µM
UO-31 cells
  GI50: 17 µM

## NCCCNCCCCN1CC1 [N-(4-aziridinylbutyl)-1,3-diaminopropane]
Cancer cell lines
  cytotoxicity against a variety of cancer cell lines: cytotoxic against a variety of cancer cell lines in submicromolar concentrations

## NCCCCNCCCN1CC1 [N-(3-aziridinylpropyl)-1,4-diaminobutane]
Cancer cell lines
  cytotoxicity against a variety of cancer cell lines: cytotoxic against a variety of cancer cell lines in submicromolar concentrations
